Reference: patent publication US10947188B2, “Small molecule ferroptosis inducers” (THE TRUSTEES OF COLUMBIA UNIVERSITY IN THE CITY OF NEW YORK, priority 2016, dated 2021)

Tests used:
HT-1080 = test: Modulatory profiling: Alamar Blue viability, lethal compound cotreated with death modulator (EC50, AUC); assay type: cell-based; set-up: AUC, modulator HT.3MA / AUC, modulator HT.ALLN / AUC HT.ATA / AUC HT.ActD / AUC HT.BHA / AUC HT.BHT / AUC HT.BocD / AUC HT.CHX / AUC HT.Co2+ / AUC HT.DPQ / AUC HT.EGTA / AUC HT.Lmim / AUC HT.NAD+ / AUC HT.Nec-1 / AUC HT.SP600125 / AUC HT.TLCK / AUC HT.U0126: unit not given beside the values; conditions: for AUC HT.ATA: HT-1080, modulator ATA; for AUC HT.ActD: HT-1080, modulator ActD; for AUC HT.BHA: HT-1080, modulator BHA; for AUC HT.BHT: HT-1080, modulator BHT; for AUC HT.BocD: HT-1080, modulator BocD; for AUC HT.CHX: HT-1080, modulator CHX; for AUC HT.Co2+: HT-1080, modulator Co2+; for AUC HT.CspA: HT-1080, modulator CspA; for AUC HT.DPQ: HT-1080, modulator DPQ; for AUC HT.EGTA: HT-1080, modulator EGTA; for AUC HT.Gd3+: HT-1080, modulator Gd3+; for AUC HT.LNAME: HT-1080, modulator LNAME; for AUC HT.Lmim: HT-1080, modulator Lmim; for AUC HT.NAD+: HT-1080, modulator NAD+; for AUC HT.NMMA: HT-1080, modulator NMMA; for HT.atoc (AUC) / HT.bCarotene (AUC) / HT.deferox (AUC) / HT.digoxin (AUC) / HT.trolox (AUC) / HT.zVAD (AUC) / EC50: HT-1080; for HT.atoc (AUC): modulator atoc; for HT.bCarotene (AUC): modulator bCarotene; for HT.deferox (AUC): modulator deferox; for HT.digoxin (AUC): modulator digoxin; for HT.trolox (AUC): modulator trolox; for HT.zVAD (AUC): modulator zVAD; for EC50: Homo sapiens, HT-1080, 48 h, 48 h
BJeLR = test: as above; assay type: cell-based, human; set-up: AUC, modulator BJ.Gd3+ / AUC, modulator BJ.LNAME / AUC, modulator BJ.Lmin / AUC, modulator BJ.3MA / AUC, modulator BJ.ALLN / AUC, modulator BJ.Boc D / AUC, modulator BJ.CHX / AUC, modulator BJ.Co2+ / AUC, modulator BJ.Nec-1 / AUC, modulator BJ.Pepstatin / AUC, modulator BJ.TLCK / AUC, modulator BJ.atoc / AUC, modulator BJ.trolox / AUC, modulator BJ.zVAD: unit not given beside the values; conditions: for AUC, modulator BJ.3MA / AUC, modulator BJ.ALLN / AUC, modulator BJ.Boc D / AUC, modulator BJ.CHX / AUC, modulator BJ.Co2+ / AUC, modulator BJ.DPQ / AUC, modulator BJ.Gd3+ / AUC, modulator BJ.LNAME / AUC, modulator BJ.Lmin/NAD+ / AUC, modulator BJ.Lmin / AUC, modulator BJ.NAD+ / AUC, modulator BJ.NMMA / AUC, modulator BJ.Nec-1 / AUC, modulator BJ.Pepstatin / AUC, modulator BJ.TLCK: BJeLR cells, modulatory profile value (AUC); for AUC, modulator BJ.3MA: lethal compound cotreated with modulator 3MA; for AUC, modulator BJ.ALLN: lethal compound cotreated with modulator ALLN; for AUC, modulator BJ.Boc D: lethal compound cotreated with modulator Boc D; for AUC, modulator BJ.CHX: lethal compound cotreated with modulator CHX; for AUC, modulator BJ.Co2+: lethal compound cotreated with modulator Co2+; for AUC, modulator BJ.DPQ: lethal compound cotreated with modulator DPQ; for AUC, modulator BJ.Gd3+: lethal compound cotreated with modulator Gd3+; for AUC, modulator BJ.LNAME: lethal compound cotreated with modulator LNAME; for AUC, modulator BJ.Lmin/NAD+: lethal compound cotreated with modulator Lmin/NAD+; for AUC, modulator BJ.Lmin: lethal compound cotreated with modulator Lmin; for AUC, modulator BJ.NAD+: lethal compound cotreated with modulator NAD+; for AUC, modulator BJ.NMMA: lethal compound cotreated with modulator NMMA; for AUC, modulator BJ.Nec-1: lethal compound cotreated with modulator Nec-1; for AUC, modulator BJ.Pepstatin: lethal compound cotreated with modulator Pepstatin; for AUC, modulator BJ.TLCK: lethal compound cotreated with modulator TLCK; for EC50: Homo sapiens, BJeLR, 48 h
[1] = cotreated with antioxidant Trolox
[2] = cotreated with iron-chelator Lmim

Structure (SMILES): O=S1(=O)Nc2c(ccc3cccnc23)-c2ccccc21 [CIL67]
- AUC HT.ATA (HT-1080): 0.08909
- AUC HT.ActD (HT-1080): 0.06498
- AUC HT.BHA (HT-1080): −0.03558
- AUC HT.BHT (HT-1080): −0.1041
- AUC HT.BocD (HT-1080): −0.02378
- AUC HT.CHX (HT-1080): 0.1458
- AUC HT.Co2+ (HT-1080): 0.03257
- AUC HT.CspA (HT-1080): 0.01638
- AUC HT.DPQ (HT-1080): −0.01092
- AUC HT.EGTA (HT-1080): 0.1234
- AUC HT.Gd3+ (HT-1080): −0.01945
- AUC HT.LNAME (HT-1080): −0.007515
- AUC HT.Lmim (HT-1080): 0.01912
- AUC HT.NAD+ (HT-1080): −0.01795
- AUC HT.NMMA (HT-1080): −0.01349
- HT.atoc (AUC) (HT-1080): 0.05006
- HT.bCarotene (AUC) (HT-1080): 0.04657
- HT.deferox (AUC) (HT-1080): 0.1176
- HT.digoxin (AUC) (HT-1080): −0.02175
- HT.trolox (AUC) (HT-1080): −0.05687
- HT.zVAD (AUC) (HT-1080): 0.004996
- AUC, modulator BJ.3MA (BJeLR): 0.02312
- AUC, modulator BJ.ALLN (BJeLR): 0.02149
- AUC, modulator BJ.Boc D (BJeLR): 0.00578
- AUC, modulator BJ.CHX (BJeLR): 0.3083
- AUC, modulator BJ.Co2+ (BJeLR): 0.03708
- AUC, modulator BJ.DPQ (BJeLR): −0.005089
- AUC, modulator BJ.Gd3+ (BJeLR): 0.0143
- AUC, modulator BJ.LNAME (BJeLR): 0.01177
- AUC, modulator BJ.Lmin/NAD+ (BJeLR): 0.1599
- AUC, modulator BJ.Lmin (BJeLR): −0.08787
- AUC, modulator BJ.NAD+ (BJeLR): −0.07272
- AUC, modulator BJ.NMMA (BJeLR): −0.01601
- AUC, modulator BJ.Nec-1 (BJeLR): −0.02018
- AUC, modulator BJ.Pepstatin (BJeLR): 0.08703
- AUC, modulator BJ.TLCK (BJeLR): 0.06141

Structure (SMILES): O=C(CCl)N(c1ccccc1)c1c[nH]c2ccccc12 [CIL69]
- AUC HT.ATA (HT-1080): −0.005358
- AUC HT.ActD (HT-1080): −0.004265
- AUC HT.BHA (HT-1080): 0.2489
- AUC HT.BHT (HT-1080): 0.2227
- AUC HT.BocD (HT-1080): −0.03457
- AUC HT.CHX (HT-1080): 0.03395
- AUC HT.Co2+ (HT-1080): 0.07132
- AUC HT.CspA (HT-1080): 0.009848
- AUC HT.DPQ (HT-1080): −0.006588
- AUC HT.EGTA (HT-1080): 0.06032
- AUC HT.Gd3+ (HT-1080): −0.01446
- AUC HT.LNAME (HT-1080): −0.04538
- AUC HT.Lmim (HT-1080): 0.1792
- AUC HT.NAD+ (HT-1080): 0.03637
- AUC HT.NMMA (HT-1080): −0.04048
- HT.atoc (AUC) (HT-1080): 0.3456
- HT.bCarotene (AUC) (HT-1080): −0.0167
- HT.deferox (AUC) (HT-1080): 0.3005
- HT.digoxin (AUC) (HT-1080): −0.0261
- HT.trolox (AUC) (HT-1080): 0.2631
- HT.zVAD (AUC) (HT-1080): −0.0004734
- effect of ferroptosis inhibitors (iron chelators and lipophilic antioxidants) on lethality in modulatory profiling (HT-1080; HT-1080 and BJeLR): suppression by canonical ferroptosis inhibitors
- EC50 (HT-1080; DMSO): 0.551 µM
- EC50 (HT-1080; cotreated with MEK inh U0126): 5.75 µM
- EC50 (HT-1080; cotreated with antioxidant Atoc): 6.13 µM
- EC50 (HT-1080; cotreated with antioxidant BHA): 4.79 µM
- EC50 (HT-1080; cotreated with antioxidant BHT): 3.28 µM
- EC50 (HT-1080; [1]): 4.26 µM
- EC50 (HT-1080; cotreated with iron-chelator Deferoxamine): 9.29 µM
- EC50 (HT-1080; [2]): 4.79 µM
- AUC, modulator BJ.3MA (BJeLR): 0.07713
- AUC, modulator BJ.ALLN (BJeLR): −0.0005222
- AUC, modulator BJ.Boc D (BJeLR): −0.003228
- AUC, modulator BJ.CHX (BJeLR): −0.03495
- AUC, modulator BJ.Co2+ (BJeLR): 0.1724
- AUC, modulator BJ.DPQ (BJeLR): 0.02521
- AUC, modulator BJ.Gd3+ (BJeLR): 0.02983
- AUC, modulator BJ.LNAME (BJeLR): 0.005201
- AUC, modulator BJ.Lmin/NAD+ (BJeLR): 0.1449
- AUC, modulator BJ.Lmin (BJeLR): 0.1799
- AUC, modulator BJ.NAD+ (BJeLR): 0.02203
- AUC, modulator BJ.NMMA (BJeLR): −0.02133
- AUC, modulator BJ.Nec-1 (BJeLR): 0.1721
- AUC, modulator BJ.Pepstatin (BJeLR): 0.0531
- AUC, modulator BJ.TLCK (BJeLR): 0.1963
- EC50 (BJeLR; DMSO): 0.193 µM
- EC50 (BJeLR; cotreated with Lmim_NAD): 0.889 µM
- EC50 (BJeLR; [1]): 2.05 µM
- EC50 (BJeLR; cotreated with antioxidant atoc): 1.78 µM
- EC50 (BJeLR; [2]): 0.976 µM

Structure (SMILES): COC(=O)c1[nH]c2ccc(Br)cc2c1NC(=O)CN1CCN(C2CCCCC2)CC1 [CIL71]
- AUC HT.ATA (HT-1080): 0.03481
- AUC HT.ActD (HT-1080): 0.0007018
- AUC HT.BHA (HT-1080): −0.05622
- AUC HT.BHT (HT-1080): −0.05839
- AUC HT.BocD (HT-1080): 0.01089
- AUC HT.CHX (HT-1080): 0.0761
- AUC HT.Co2+ (HT-1080): 0.02342
- AUC HT.CspA (HT-1080): −0.03233
- AUC HT.DPQ (HT-1080): −0.003505
- AUC HT.EGTA (HT-1080): −0.02298
- AUC HT.Gd3+ (HT-1080): −0.01552
- AUC HT.LNAME (HT-1080): 0.02366
- AUC HT.Lmim (HT-1080): −0.002609
- AUC HT.NAD+ (HT-1080): 0.01546
- AUC HT.NMMA (HT-1080): −0.0007859
- HT.atoc (AUC) (HT-1080): 0.03733
- HT.bCarotene (AUC) (HT-1080): −0.01281
- HT.deferox (AUC) (HT-1080): −0.003654
- HT.digoxin (AUC) (HT-1080): −0.01046
- HT.trolox (AUC) (HT-1080): −0.01311
- HT.zVAD (AUC) (HT-1080): 0.01756
- AUC, modulator BJ.3MA (BJeLR): 0.01151
- AUC, modulator BJ.ALLN (BJeLR): −0.05589
- AUC, modulator BJ.Boc D (BJeLR): 0.0152
- AUC, modulator BJ.CHX (BJeLR): −0.06352
- AUC, modulator BJ.Co2+ (BJeLR): 0.02676
- AUC, modulator BJ.DPQ (BJeLR): 0.03052
- AUC, modulator BJ.Gd3+ (BJeLR): 0.01394
- AUC, modulator BJ.LNAME (BJeLR): 0.001204
- AUC, modulator BJ.Lmin/NAD+ (BJeLR): 0.001502
- AUC, modulator BJ.Lmin (BJeLR): −0.02138
- AUC, modulator BJ.NAD+ (BJeLR): −0.03656
- AUC, modulator BJ.NMMA (BJeLR): −0.000118
- AUC, modulator BJ.Nec-1 (BJeLR): −0.02956
- AUC, modulator BJ.Pepstatin (BJeLR): −0.01112
- AUC, modulator BJ.TLCK (BJeLR): 0.01514
